The values below come from ChEMBL document CHEMBL1932964, “Lead optimisation of pyrazoles as novel FPR1 antagonists” (Bioorg Med Chem Lett, 2012).

For data set [1], the target named is T1, fMet-Leu-Phe receptor (Homo sapiens, UniProt P21462).
T1 sequence (P21462 whole entry): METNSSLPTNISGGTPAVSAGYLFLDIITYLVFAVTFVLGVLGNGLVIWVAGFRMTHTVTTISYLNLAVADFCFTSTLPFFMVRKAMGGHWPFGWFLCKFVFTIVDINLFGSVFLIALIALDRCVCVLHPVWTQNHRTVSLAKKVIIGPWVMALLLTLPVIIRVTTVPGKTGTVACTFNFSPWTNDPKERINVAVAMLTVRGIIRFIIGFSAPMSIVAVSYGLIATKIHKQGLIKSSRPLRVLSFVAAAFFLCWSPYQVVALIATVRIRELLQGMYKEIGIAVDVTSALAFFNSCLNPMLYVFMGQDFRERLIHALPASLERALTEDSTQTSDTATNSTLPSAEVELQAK
The data set is described as follows: Antagonist activity at human recombinant FPR1 in expressed in HEK293 cells assessed as inhibition of FMLP-stimulated intracellular calcium mobilisation after 1 hr by FLIPR assay. It is filed as functional, cell-based. Background: A change in cytosolic calcium serves as a functional read-out for many receptors and channels.

Data set [2] in a line: Intrinsic clearance in Sprague-Dawley rat hepatocytes assessed per 10^6 cells measured after 90 mins.
A further data set deals with Liver. In words: Intrinsic clearance in rat liver microsomes assessed as media loss of parent compound per million cells. Background: Microsomes from liver hold many membrane-bound enzymes, among them those of drug oxidation.
A short description of data set [3]: Distribution coefficient, log D of compound. In kind it is physicochemical. The settings on record: octanol/water.
Data set [4] in a line: Thermodynamic solubility of compound by shake-flask technique. It is filed as physicochemical. The following applies: read-out: Therm_solubility.
Data set [5] is described as follows: Fraction unbound in human plasma. It is filed as ADME, cell-free.
A short description of data set [6]: Fraction unbound in Sprague-Dawley rat plasma. In kind it is ADME, cell-free. The following applies: Sprague-Dawley.
A short description of data set [7]: Volume of distribution at steady state in Sprague-Dawley rat at 2 mg/kg, iv. It is filed as ADME, organism-based. The following applies: in vivo, read-out: Vdss. On the set-up: dose 2 mg/kg, route intravenous.
The nature of data set [8]: Oral bioavailability in Sprague-Dawley rat at 2 mg/kg. The following applies: in vivo. It is filed as ADME, organism-based.
Data set [9] addresses T1, fMet-Leu-Phe receptor. In words: Antagonist activity at FPR1 in human neutrophils assessed as AB/fMLF-stimulated upregulation of CD11b expression preincubated for 30 mins before AB/FMLF challenge measured after 50 mins using FITC staining by flow cytometry. It is filed as functional. The settings on record: read-out: pA2 (converted). In general terms: In flow cytometry, cells or beads pass a laser one at a time.

The next data set relates to THP-1. In words: Cytotoxicity against human THP1 cells. It is filed as cell-based.
The next data set concerns the target T2, Cytochrome P450 1A2 (Homo sapiens, UniProt P05177).
T2 sequence (P05177 whole entry): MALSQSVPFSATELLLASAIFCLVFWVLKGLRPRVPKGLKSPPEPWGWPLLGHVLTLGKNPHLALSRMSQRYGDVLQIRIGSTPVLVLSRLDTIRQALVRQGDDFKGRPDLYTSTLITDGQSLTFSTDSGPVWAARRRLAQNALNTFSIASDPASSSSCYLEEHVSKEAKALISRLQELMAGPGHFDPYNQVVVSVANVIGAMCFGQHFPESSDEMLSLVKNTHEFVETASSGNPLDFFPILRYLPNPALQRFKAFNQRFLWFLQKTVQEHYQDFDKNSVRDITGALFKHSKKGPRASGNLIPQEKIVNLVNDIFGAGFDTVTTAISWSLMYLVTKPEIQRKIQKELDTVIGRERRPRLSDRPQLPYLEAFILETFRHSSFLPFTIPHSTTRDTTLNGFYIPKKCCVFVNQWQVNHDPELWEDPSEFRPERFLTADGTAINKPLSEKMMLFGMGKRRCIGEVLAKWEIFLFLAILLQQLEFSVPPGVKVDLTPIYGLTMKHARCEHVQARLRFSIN
In words: Inhibition of CYP1A2. In kind it is ADME.

The target of a further data set is Cytochrome P450 2C9 (Homo sapiens, UniProt P11712). In words: Inhibition of CYP2C9. In kind it is ADME.
The target of another data set is Cytochrome P450 2C19 (Homo sapiens, UniProt P33261). In words: Inhibition of CYP2C19. In kind it is ADME.
The next data set deals with Cytochrome P450 2D6 (Homo sapiens, UniProt P10635). In words: Inhibition of CYP2D6. In kind it is ADME.
A further data set has as its target Cytochrome P450 3A4 (Homo sapiens, UniProt P08684). In words: Inhibition of CYP3A4. It is filed as ADME.
Data set [10] can be described thus: Time dependent inhibition of CYP. It is filed as ADME.
The nature of data set [11]: Intrinsic clearance in human liver microsomes measured after 45 mins post NADPH addition.
A short description of data set [12]: Intrinsic clearance in human hepatocytes assessed per 10^6 cells measured after 90 mins.
Data set [13] can be described thus: Clearance in Sprague-Dawley rat at 2 mg/kg, iv. The following applies: in vivo.
Data set [14] can be described thus: Half life in Sprague-Dawley rat at 2 mg/kg, iv. The settings on record: in vivo.

Chain of Cytochrome P450 2C19 (P33261 whole entry): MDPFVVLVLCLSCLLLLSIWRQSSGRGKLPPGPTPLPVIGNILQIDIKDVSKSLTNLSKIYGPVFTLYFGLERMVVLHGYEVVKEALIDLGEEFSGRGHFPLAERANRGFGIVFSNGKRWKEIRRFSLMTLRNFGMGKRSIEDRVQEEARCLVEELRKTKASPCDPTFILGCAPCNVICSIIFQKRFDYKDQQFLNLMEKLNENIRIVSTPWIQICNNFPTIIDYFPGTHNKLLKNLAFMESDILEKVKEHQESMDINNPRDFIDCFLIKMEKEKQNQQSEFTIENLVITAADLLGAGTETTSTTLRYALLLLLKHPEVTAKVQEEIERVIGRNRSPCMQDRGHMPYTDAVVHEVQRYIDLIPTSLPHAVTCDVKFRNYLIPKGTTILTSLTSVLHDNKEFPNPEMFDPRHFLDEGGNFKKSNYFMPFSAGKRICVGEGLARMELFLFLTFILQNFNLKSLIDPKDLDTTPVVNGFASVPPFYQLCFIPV
Chain of Cytochrome P450 2D6 (P10635 whole entry): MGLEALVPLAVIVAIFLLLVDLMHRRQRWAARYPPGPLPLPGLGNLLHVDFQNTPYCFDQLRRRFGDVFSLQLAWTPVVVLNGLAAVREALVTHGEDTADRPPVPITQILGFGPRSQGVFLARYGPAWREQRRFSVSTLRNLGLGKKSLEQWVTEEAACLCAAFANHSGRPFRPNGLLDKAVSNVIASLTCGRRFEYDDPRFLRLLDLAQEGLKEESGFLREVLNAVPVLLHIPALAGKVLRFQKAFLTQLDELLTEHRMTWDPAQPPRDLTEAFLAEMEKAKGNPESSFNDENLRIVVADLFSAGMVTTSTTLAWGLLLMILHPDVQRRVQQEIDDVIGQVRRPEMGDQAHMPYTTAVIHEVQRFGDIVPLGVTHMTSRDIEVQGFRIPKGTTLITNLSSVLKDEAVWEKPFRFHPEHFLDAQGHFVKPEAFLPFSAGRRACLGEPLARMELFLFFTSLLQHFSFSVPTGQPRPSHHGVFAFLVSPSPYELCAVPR
Chain of Cytochrome P450 3A4 (P08684 whole entry): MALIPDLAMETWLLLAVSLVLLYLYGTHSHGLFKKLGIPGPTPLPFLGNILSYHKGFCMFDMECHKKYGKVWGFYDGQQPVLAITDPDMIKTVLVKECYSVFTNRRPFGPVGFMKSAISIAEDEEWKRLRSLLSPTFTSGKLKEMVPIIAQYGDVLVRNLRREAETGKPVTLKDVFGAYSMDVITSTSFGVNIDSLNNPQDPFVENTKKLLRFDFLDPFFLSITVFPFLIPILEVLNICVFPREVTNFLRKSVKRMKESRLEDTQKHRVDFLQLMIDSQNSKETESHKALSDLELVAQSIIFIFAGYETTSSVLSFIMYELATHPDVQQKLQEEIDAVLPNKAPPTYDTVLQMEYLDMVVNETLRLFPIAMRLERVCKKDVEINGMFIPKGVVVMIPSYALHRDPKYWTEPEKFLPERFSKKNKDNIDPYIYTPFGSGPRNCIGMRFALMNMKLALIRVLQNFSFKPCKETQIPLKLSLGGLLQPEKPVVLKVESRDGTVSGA
Chain of Cytochrome P450 2C9 (P11712 whole entry): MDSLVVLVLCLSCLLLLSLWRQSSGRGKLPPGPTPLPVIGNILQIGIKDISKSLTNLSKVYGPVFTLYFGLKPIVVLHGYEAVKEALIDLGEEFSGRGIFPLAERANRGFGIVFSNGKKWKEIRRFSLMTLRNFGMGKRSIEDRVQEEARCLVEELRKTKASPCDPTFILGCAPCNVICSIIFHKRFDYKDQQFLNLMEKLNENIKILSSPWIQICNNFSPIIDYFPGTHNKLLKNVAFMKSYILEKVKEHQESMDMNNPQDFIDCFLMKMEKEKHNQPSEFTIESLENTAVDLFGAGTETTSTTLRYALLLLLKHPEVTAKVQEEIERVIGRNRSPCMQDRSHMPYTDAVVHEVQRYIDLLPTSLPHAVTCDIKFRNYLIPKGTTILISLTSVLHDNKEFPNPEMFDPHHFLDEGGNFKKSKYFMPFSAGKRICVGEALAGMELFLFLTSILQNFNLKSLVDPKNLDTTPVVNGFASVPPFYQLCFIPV

A word on the IC50: it is the point on the concentration scale where inhibition reaches its midpoint. Broadly, the hepatocyte CLint is a measure of how fast metabolising enzymes remove a compound, apart from limits set by blood flow. A high value points to rapid turnover. Turning to `COCCC(C)n1nc(C)c(C(=O)N[C@@H](C)C(C)(C)C)c1NS(=O)(=O)c1ccc(C)cc1` (stereo not given in full), the IC50 at fMet-Leu-Phe receptor [1] was 0.316 µM. This molecule also registered an intrinsic metabolic clearance (hepatocyte CLint) at […] in [2] of 10 µL/min/1e6 cells.
For `CCC(CC)NC(=O)c1c(C)nn(C(C)C)c1NS(=O)(=O)c1ccc(C)cc1`, the IC50 at fMet-Leu-Phe receptor [1] is 25.1 µM.
On to `Cc1ccc(S(=O)(=O)Nc2c(C(=O)N[C@@H](C)C(C)(C)C)c(C)nn2C2CCSCC2)cc1`, for which the IC50 at fMet-Leu-Phe receptor [1] was 0.0398 µM.
For `Cc1ccc(S(=O)(=O)Nc2c(C(=O)N[C@@H](C)C(C)(C)C)c(C)nn2C2CCCCC2)cc1`, the concentration for half-maximal inhibition (IC50) on fMet-Leu-Phe receptor [1] was 0.0316 µM. In addition, in data set [2], the hepatocyte CLint at […] is 8 µL/min/1e6 cells. Moreover, the CLH in the data set with Liver stood at 23 µL/min.
As a reminder, the logD is the decadic logarithm of the distribution of all forms, ionised or not, between an organic phase and buffer at a given pH. Usually fraction unbound stands for the share of the substance not bound to proteins or other matrix. In general, bioavailability refers to the share of a dose that reaches the circulation, judged against a reference dose that is usually intravenous. Lower therefore signals little systemic uptake. In general, pIC50 refers to the IC50 on a negative log10 scale, so that one unit is a factor of ten. High values mean a low IC50, low ones a high IC50. For `Cc1nn(C2CCOCC2)c(NS(=O)(=O)c2ccc(C3CC3)cc2)c1C(=O)N[C@@H](C)C(C)(C)C`, the IC50 on fMet-Leu-Phe receptor [1] is 0.158 µM; in the data set on THP-1 it was above 50.1 µM; at Cytochrome P450 1A2 it was above 10 µM; at Cytochrome P450 2C9, above 10 µM; against Cytochrome P450 2C19 it was above 10 µM; on Cytochrome P450 2D6 it was above 10 µM. The IC50 against Cytochrome P450 3A4 was above 10 µM. The molecule also gave a logD in data set [3] of 1.2. The solubility thermodynamic in [4] is above 2800 µM. For the same molecule, the values for the fraction unbound in data set [5] and in data set [6] were 0.075 and 0.111, respectively. Also, the Vd in data set [7] worked out at 0.5 L/kg. For the same molecule, the bioavailability in data set [8] was 83%. Further, the Kb at fMet-Leu-Phe receptor [9] is 0.794 µM. This molecule also came in with a pIC50 in [10] below 5.
`Cc1ccc(S(=O)(=O)Nc2c(C(=O)N[C@@H](C)C(C)(C)C)c(C)nn2C2CCOC2)cc1` (stereo not given in full): on fMet-Leu-Phe receptor [1], the half-maximal inhibitory concentration (IC50) was 1 µM.
Usually microsomal CLint stands for the rate of metabolic loss divided by the concentration. One may read the clearance as the volume of plasma or blood freed of the substance per unit of time. A higher clearance goes with a high capacity for elimination. What is called half-life is the time in which the quantity being followed falls by half. A high value points to slow decline. `CO[C@H]1CC[C@@H](n2nc(C)c(C(=O)N[C@@H](C)C(C)(C)C)c2NS(=O)(=O)c2ccc(C)cc2)CC1`: the half-maximal inhibitory concentration (IC50) on fMet-Leu-Phe receptor [1] was 0.00398 µM; with THP-1, above 50.1 µM; at Cytochrome P450 1A2, above 10 µM; at Cytochrome P450 2C9, above 10 µM; against Cytochrome P450 2C19 it was above 10 µM; against Cytochrome P450 2D6, above 10 µM. For the same molecule, at Cytochrome P450 3A4, the half-maximal inhibitory concentration (IC50) was above 10 µM. Also, the pH-dependent lipophilicity (logD) in data set [3] was found to be 1.3. Further, the microsomal CLint at 0.75 h in data set [11] came to 8 µL/min/mg. For the same molecule, the results for the hepatocyte CLint at […] in [12] and in [2] were 3.6 µL/min/1e6 cells and 3 µL/min/1e6 cells, respectively. The figures for the fraction unbound in data set [5] and in data set [6] were 0.073 and 0.1, respectively. Besides, in data set [13], the clearance stood at 5.5 mL/min/kg. For the same molecule, the half-life in data set [14] is 2.8 h. In data set [7], the Vd stood at 1.2 L/kg. In data set [8], this molecule gave a bioavailability of 80%. Also, at fMet-Leu-Phe receptor [9], the Kb is 0.02 µM. In data set [10], this molecule gave a pIC50 below 5.
Consider `Cc1ccc(S(=O)(=O)Nc2c(C(=O)N[C@@H](C)C(C)(C)C)c(C)nn2C(C)C)cc1`, for which, at fMet-Leu-Phe receptor [1], the IC50 was 1 µM. This molecule returned a hepatocyte CLint at […] in [2] below 6 µL/min/1e6 cells. For the same molecule, the fraction unbound in data set [6] amounted to 0.04. For the same molecule, the CLH in the data set with Liver was found to be 7.8 µL/min. This molecule displayed a clearance in data set [13] of 4 mL/min/kg.
With `Cc1ccc(S(=O)(=O)Nc2c(C(=O)N[C@@H](C)C(C)(C)C)c(C)nn2C(C)(C)C)cc1`, the IC50 on fMet-Leu-Phe receptor [1] is 1.58 µM. Besides, in [2], the hepatocyte CLint at […] stood at 53 µL/min/1e6 cells.
Regarding `Cc1ccc(S(=O)(=O)Nc2c(C(=O)N[C@@H](C)C(C)(C)C)c(C)nn2C2CCS(=O)(=O)CC2)cc1`, the IC50 at fMet-Leu-Phe receptor [1] is 10 µM.
